Results published in US10882863B2, “Compounds for reducing c-Myc in c-Myc overexpressing cancers background” (The Trustees of Columbia University in the City of New York, priority 2016, dated 2021).
Like-named read-outs stand apart in the source and are kept apart here.

Assays:
c-Myc [1] = test: Western blot of c-Myc level in LY7 (GCB-DLBCL) cells; type: cell-based; settings: for reduction in c-Myc (Western blot): LY-7, 25 uM, 6 hours
Description: (§1) Western blot was performed on whole protein extract from cultured cells under specified treatment conditions, most often for 24 hours. Western blotting was performed according to standard protocols, using the chemiluminescence detection system from Thermo Scientific. The primary antibodies were purchased from Cell Signaling Technology unless specified otherwise, and were against these proteins: 4EBP1, phos-4EBP1, S6K, phos-S6K, Bcl2, Bcl-xL, PARP, c-myc, B-catenin, P-4EBP1 (S65), P-4EBP1 (T70). Signals of beta-actin and GAPDH were used as loading control. Goat anti-rabbit or anti-mouse secondary antibodies were purchased from Santa Cruz Biotechnology.
(§2) The lymphoma cell lines LY10 and LY7 were treated with PF4800567 (PF), Cal-101 (Cal), TGR-1202 (TG) and CUX-03166 as single agents for 6 hours all at 25 uM concentrations. Protein extracts were processed for Western blot using antibodies against c-Myc, B-Catenin, phosphorylated 4EBP1, total 4EBP1, and beta actin.
(§3) FIG. 6. […] Protein extracts were processed for Western blot using antibodies against c-Myc, B-Catenin, phosphorylated 4EBP1, total 4EBP1, P-p70S6K, P70S6K, PARP and beta actin.

[2] = test system: Z-138 (mantle cel lymphoma, MCL) cells; test: Cell Titer Glo viability, Z-138 mantle cell lymphoma cells; type: cell-based; settings: Homo sapiens; Z-138, 25 uM, 24 hours
Description: (§4) Cytotoxicity was performed on cultured cells using Cell Titer Glo, as previously described. Experiments were carried out in 96-well plates, with each treatment in triplicate. Samples were taken at typically 24 hours, 48 hours, and/or 72 hours after treatment, as indicated. Cytotoxicity was expressed by the decreasing percentage of live cells in each treatment relative to the untreated control from the same experiment, as a function of time. IC50 (half the maximal inhibitory concentration) for each cell line was calculated using the CalcuSyn Version 2.0 software (Biosoft).
(§5) CUX-0404A reduces viability of OCI-LY7 cells (germinal center diffuse large B cell lymphoma, GCB-DLBCL), see FIG. 4. The lymphoma cell line LY7 was treated with CUX-0404A for 24 hours (dark circle), 48 hours (light circle) or CUX0404B for 24 hours (dark square) or 48 hours (light square). Viability was determined similar to that for FIG. 1. At 15 uM concentrations, viability of cells dropped to 60% at 24 hours, ˜42% at 48 hours, At 25 uM concentrations, viability dropped to 0% at 24 hours. FIG. 5. CUX-0404A reduces viability of Z-138 (mantle cel lymphoma, MCL) cells more potently than TG-1202. […] Viability was determined similar to that for FIG. 1. At 25 uM concentrations, viability of cells dropped to 20% for the CUX-0404A treatment as compared to 60% for TGR-1202

LY10 cells = test: Cell Titer Glo viability, lymphoma cell line LY10; type: cell-based; settings: for viability at 50 µM: LY10, 50 uM
Description: as §4
The lymphoma cell line LY10 was treated with CUX-03166 (′166 compound) for 24 hours, 48 hours and 72 hours. Cells were collected from the treatment group and the vehicle treated negative control. Viable cells were quantitated by the Cell-Titer Glo assay from Promega. Viable cells in the treated cells were expressed as a percentage of the negative control. […] At a concentration of 50 uM, viability of cells drop to 0% just at 24 hours of treatment. Cells were also treated with Cal-101 and TGR-1202 and viability was determined at 24 hr. For lower concentrations of 5 μm and 15 μM, viability dropped to ˜80% for both treatments. However, as concentrations increased up to 50 μM, viability remained at ˜80% for Cal-101 and modestly dropped to ˜65% for TGR-1202, as shown in FIG. 1.

LY7 cells = test: Cell Titer Glo viability, lymphoma cell line LY7 (OCI-LY7, GCB-DLBCL); type: cell-based; settings: for viability at 15 µM: LY7, 15 uM; for viability at 25 µM: LY7, 25 uM
Description: as §4
The lymphoma cell line LY7 was treated with CUX-03166 for 24 hr (diamond), 48 hours (square) and 72 hours (triangle). Viability was determined similar to that for Example 2. […] At 25 uM concentrations, viability dropped to 0% at 24 hours.
as §5

phosphorylation of 4EBP1 [3] = test: Western blot of phosphorylated 4EBP1 in GCB-DLBCL lymphoma cell line; type: cell-based; settings: 12 hours, 15 and 20 uM
Description: as §1, §3

CK1epsilon = biological target: T1, CK1epsilon (Homo sapiens, UniProt P49674); test: CK1ε kinase activity assay (radioisotope filtration binding assay); type: biochemical; settings: 10 μM ATP, 3-fold serial dilution from 100 μM
T1 construct: purchased Reaction Biology
T1 sequence (P49674 whole entry): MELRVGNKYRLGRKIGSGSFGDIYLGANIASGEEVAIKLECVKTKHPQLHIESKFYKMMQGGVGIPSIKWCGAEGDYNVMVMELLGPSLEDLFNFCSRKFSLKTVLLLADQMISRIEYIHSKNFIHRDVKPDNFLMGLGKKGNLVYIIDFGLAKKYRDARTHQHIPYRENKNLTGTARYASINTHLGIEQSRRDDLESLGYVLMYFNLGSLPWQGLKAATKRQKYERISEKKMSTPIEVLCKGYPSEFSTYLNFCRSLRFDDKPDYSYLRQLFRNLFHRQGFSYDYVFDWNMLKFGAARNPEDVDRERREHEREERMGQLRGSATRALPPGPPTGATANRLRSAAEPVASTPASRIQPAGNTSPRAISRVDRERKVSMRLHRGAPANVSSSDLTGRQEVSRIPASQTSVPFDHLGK
Description: The CK-1 assay was conducted according to the techniques disclosed in Anastassiadis et al, Nat Biotechnol; 29(11): 1039-1045. Briefly, specific kinase/substrate pairs along with required cofactors were prepared in reaction buffer; 20 mM Hepes pH 7.5, 10 mM MgCl2, 1 mM EGTA, 0.02% Brij35, 0.02 mg/ml BSA, 0.1 mM Na3VO4, 2 mM DTT, 1% DMSO (for specific details of individual kinase reaction components see Supplementary Table 2, Anastassiadis et al. 2011). Compounds were delivered into the reaction, followed ˜20 minutes later by addition of a mixture of ATP (Sigma, St. Louis Mo.) and 33P ATP (Perkin Elmer, Waltham Mass.) to a final concentration of 10 μM. Reactions were carried out at room temperature for 120 min, followed by spotting of the reactions onto P81 ion exchange filter paper (Whatman Inc., Piscataway, N.J.). Unbound phosphate was removed by extensive washing of filters in 0.75% phosphoric acid. […] IC50 values and curve fits were obtained using Prism (GraphPad Software). • Substrate: Peptide substrate, [KRRRAL[pS]VASLPGL], 20 μM ATP 10 μM • Reaction: Substrate+[γ-33P]-ATP 33P-Substrate+ADP • Assay: radioisotope filtration binding assay (Reaction Biology). […]

c-Myc [4] = test: Western blot of c-Myc level in LY10 cells; type: cell-based; settings: LY-10, 25 uM, 6 hours, vs vehicle
Description: as §1, §2

phosphorylation of 4EBP1 [5] = test: Western blot of phosphorylated 4EBP1 in LY10 cells; type: cell-based; settings: LY-10, 25 uM, 6 hours, vs vehicle
Description: as §1, §2

[6] = 24 hours, read-out: viability (viable cells as percentage of negative control)

SMILES	viability at 15 µM (LY7 cells; 24 hours) [%]	viability at 15 µM (LY7 cells; 48 hours) [%]	viability at 25 µM (LY7 cells; 24 hours) [%]	inhibition of the c-Myc level (Western blot) (c-Myc [4])	reduction in c-Myc (Western blot) (c-Myc [1])	viability at 50 µM (LY10 cells; [6]) [%]	further results
CC(C)Oc1ccc(-c2nn([C@@H](C)c3nc4ncc(Br)c(N(C)C)c4c(=O)n3-c3ccccc3)c3ncnc(N)c23)cc1F [CUX-0404A]	60	~42	0				c-myc level (Western blot) (c-Myc [1]; GCB-DLBCL lymphoma cell line, 12 hours, 20 uM): undetectable; reduction of c-Myc level (Western blot) (c-Myc [1]; GCB-DLBCL lymphoma cell line, 12 hours, 15 and 20 uM, vs vehicle): significantly greater reduction; viability at 25 µM [2]: 20%; viability at 20 µM (LY10 cells; LY10 (as printed in summary), 20 μM, 48 hours): 0%; viability at 25 µM (LY10 cells; LY10 (as printed in summary), 25 μM, 24 hours, read-out: viability): 0%; inhibition of phosphorylation of 4EBP1 (Western blot) (phosphorylation of 4EBP1 [3]): Potent Inhibition; IC50 (CK1epsilon): 3.21 µM
CC[C@@H](c1nc2cccc(F)c2c(=O)n1-c1ccccc1)n1nc(-c2ccc(OC(C)C)c(F)c2)c2c(N)ncnc21 [CUX-03166]	40	10	0	significantly greater reduction	undetectable level	0	increase in potency in inhibiting c-Myc compared to TGR-1202 (c-Myc [1]; LY7 cells, Western blot): near-fiftyfold increase in potency; viability at 25 µM (LY10 cells; LY10, 25 uM, 48 hours, read-out: viability (viable cells as percentage of negative control)): 0%; viability at 15 µM (LY7 cells; 72 hours): ~0%
CC[C@H](Nc1ncnc2[nH]cnc12)c1nc2cccc(F)c2c(=O)n1-c1ccccc1 [Cal-101, reference compound]						~80	
Nc1ncnc2c1c(COc1cccc(Cl)c1)nn2C1CCOCC1 [PF4800, reference compound]				moderate inhibition	modest reduction		inhibition of phosphorylation of 4EBP1 (Western blot) (phosphorylation of 4EBP1 [5]): moderate inhibition
